Measured values published in patent US8012944B2, “Method for treating cancer using IAP antisense oligomer and chemotherapeutic agent” (Pharmascience Inc., priority 2003, dated 2011).
Oligonucleotides are written 5' to 3', each unit as a sugar letter and its base; * is a phosphorothioate linkage, no mark a phosphodiester; rarer units and linkages stand in square brackets, end groups in braces. Plain capitals give the bases only. d = 2'-deoxy (DNA); m = 2'-O-methyl

Columns and labels:
Assay type in all cases: cell-based, human
XIAP protein = XIAP protein knock-down in T24 cells (XIAP ELISA, relative to total protein); conditions: for XIAP protein levels relative to total protein, compared to mock transfection (in words): first screen of the library
Source text: (§1) We used TaqMan quantitative PCR (described below) to assay for changes in mRNA levels after oligonucleotide treatment. We employed ELISA for determining XIAP protein levels and western blotting for determining HIAP1 protein levels. Transfection conditions were optimized with Lipofectamine plus or Lipofectamine 2000 (Life Technologies, Canada) on T24 bladder carcinoma cells or H460 non-small cell lung carcinoma cells, or lipofectin on SF-295 glioblastoma cells, using a fluorescein-tagged sense oligonucleotide (5′-mGmAGAAGATGACTGGTAAmCmA-3′; SEQ ID NO: 261) from XIAP spanning the start codon as a control. The results were visualized and gauged by epi-fluorescence microscopy. In the case of T24 cells, transfections were further optimized based on the ability of a published oligonucleotide to downregulate survivin expression (Li et al., Nat. Cell Biol. 1:461-466, 1999) (5′-U/TGTGCTATTCTGTGAAU/TU/T-3′ SEQ ID NO: 262). We optimized the transfection conditions based on the TaqMan results of survivin RNA knock-down detected with PCR primers and fluorescent probe, described in detail below. […] We then applied these conditions to screen for XIAP protein knock-down using the oligo library against T24 cells.
A standard colorimetric XIAP ELISA assay was performed using an affinity-purified rabbit polyclonal antibody to XIAP as a capture antibody, and was detected with a XIAP monoclonal antibody (MBL, Japan) and a biotinylated anti-mouse Ig antibody and horseradish peroxidase-conjugated streptavidin and TMB substrate. Alternatively, a polyclonal XIAP or HIAP1 antibody may be used to measure XIAP or HIAP1 protein levels, respectively.
The XIAP synthetic library of 96 antisense oligonucleotides was first screened for decreases in XIAP protein levels. Specifically, T24 cells (1.5×10^4 cells/well) were seeded in wells of a 96-well plate on day 1, and were cultured in antibiotic-free McCoy's medium for 24 hours. On day 2, the cells were transfected with XIAP antisense oligonucleotides as described above (oligonucleotides are labeled according to their plated position, i.e., A1 to H12, and include two repeats, A13 and B13 that contain lyophilized DNA pellets that stuck to the sealing membrane). Briefly, the nucleobase oligomers were diluted in 10 μl/well of serum-free, antibiotic-free McCoy's medium and then PLUS reagent was added. Lipofectamine was diluted in 10 μl/well of serum-free, antibiotic-free McCoy's medium, and both mixes were incubated for 15 minutes at room temperature. The mixes were then combined and incubated for 15 minutes at room temperature.
In the meantime, the complete medium was removed from the cells and 50 μl/well of serum-free, antibiotic-free medium was added to the cells. The transfection mixes were added to the well, and the cells were incubated for three hours. Then 30 μl/well of serum-free, antibiotic-free medium and 100 μl/well of antibiotic-free complete medium, containing 20% fetal bovine serum were added to each well.
At day 3, XIAP RNA levels were measured using quantitative real-time PCR techniques, as described above. At day 4, XIAP protein levels were measured by ELISA (FIGS. 1A, 1C, 1E, 1G, 1I, and 1K), and total cellular protein was measured biochemically (FIGS. 1B, 1D, 1F, 1H, 1J, and 1L; used to normalize the XIAP protein levels). The results were compared to a mock transfection sample (treated with the transfection agent but no oligonucleotide DNA was added, and then processed as for the other samples). Time course experiments determined that the optimal time for protein knock-down to be around 12 to 24 hours. […]

XIAP RNA = XIAP RNA knock-down in T24 cells (TaqMan quantitative PCR)
Source text: as §1
(§2) RNA was extracted from cells lysed in RLT buffer (QIAGEN, Valencia, Calif.), and purified using QIAGEN RNeasy columns/kits. Real-time quantitative PCR was performed on a Perkin-Elmer ABI 7700 Prism PCR machine. RNA was reverse transcribed and amplified according to the TaqMan Universal PCR Master Mix protocol of PE Biosystems, using primers and probes designed to specifically recognize XIAP, HIAP1, survivin, or GAPDH. For human survivin, the forward primer was 5′-[…]-3′ (SEQ ID NO: 263), the reverse primer was 5′-GAAAGGAAAGCGCAACCG-3′ (SEQ ID NO: 264), and the probe was 5′-(FAM)[…](TAMRA)-3′ (SEQ ID NO: 265). For human HIAP1, the forward primer was 5′-[…]-3′ (SEQ ID NO: 266), the reverse primer was 5′-[…]-3′ (SEQ ID NO: 267), and the probe was 5′-(FAM)[…](TAMRA)-3′ (SEQ ID NO: 268). For human XIAP, the forward primer was 5′-[…]-3′ (SEQ ID NO: 269), the reverse primer was 5′-[…]-3′ (SEQ ID NO: 270), and the probe was 5′-(FAM)[…](TAMRA)-3′ (SEQ ID NO: 271). For human GAPDH, the forward primer was 5′-GAAGGTGAAGGTCGGAGTC-3′ (SEQ ID NO: 272), the reverse primer was 5′-GAAGATGGTGATGGGATTC-3′ (SEQ ID NO: 273), and the probe was 5′-(JOE)[…](TAMRA)-3′ (SEQ ID NO: 274). FAM is 6-carboxyfluoroscein, JOE is 6-carboxy-4,5-dichloro-2,7-dimethoxyfluoroscein, and TAMRA is 6-carboxy-N,N,N′,N′-tetramethylrhodamine. FAM and JOE are 5′ reporter dyes, while TAMRA is a 3′ quencher dye.
(§3) Relative quantification of gene expression was performed as described in the PE Biosystems manual using GAPDH as an internal standard. The comparative Ct (cycle threshold) method was used for relative quantitation of IAP mRNA levels compared to GAPDH mRNA levels. Briefly, real-time fluorescence measurements were taken at each PCR cycle and the threshold cycle (Ct) value for each sample was calculated by determining the point at which fluorescence exceeded a threshold limit of 30 times the baseline standard deviation. The average baseline value and the baseline SD are calculated starting from the third cycle baseline value and stopping at the baseline value three cycles before the signal starts to exponentially rise. The PCR primers and/or probes for the specific IAPs were designed to span at least one exon-intron boundary separated by 1 kb or more of genomic DNA, to reduce the possibility of amplifying and detecting genomic DNA contamination. The specificity of the signal, and possible contamination from DNA, were verified by treating some RNA samples with either DNase or RNase, prior to performing the reverse transcription and PCR reaction steps.
The XIAP synthetic library of 96 antisense oligonucleotides was first screened for decreases in XIAP protein levels. […]

XIAP mRNA [1] = assay: XIAP mRNA knock-down in H460 cells (real-time RT-PCR / TaqMan)
Method in brief: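 NCI-H460 cells transfected with phosphorothioate antisense oligonucleotides via Lipofectamine 2000; RNA isolated after 6 h treatment. XIAP mRNA quantified by one-step TaqMan real-time RT-PCR, comparative Ct (threshold 30× baseline SD), normalized to GAPDH and expressed relative to untreated control cells.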

XIAP mRNA [2] = assay: as above; conditions: 2 × 2 MBO; NCI-H460 cells, 9 hours post-transfection; relative level (mock control 1.01)
HIAP1 mRNA = HIAP1 mRNA in SF295 cells, basal conditions (TaqMan); set-up: decrease of HIAP1 mRNA compared to mock or scrambled survivin control: concentration or dose not given beside the values; conditions: for HIAP1 mRNA levels (in words): SF295 cells (FIG. 21)
Method: as §2, §3
A library of 15 HIAP1 antisense nucleobase oligomers as oligonucleotides was screened for protein knock-down by western blot analysis and for RNA knock-down by TaqMan, using the primers and probes described in Example 3, above, under two different conditions. HIAP1 RNA levels may be detected using standard Northern blot analyses or RT-PCR techniques. The antisense oligonucleotides were administered to cells under basal conditions or under cycloheximide-induction conditions (24 hour treatment with sub-toxic doses). Cycloheximide (CHX) can lead to a 10- to 200-fold induction of HIAP1 mRNA depending on the cell line treated. […] This effect of CHX is via two distinct mechanisms of action. First, CHX activates NFkB, a known transcriptional inducer of HIAP1, by blocking the de novo synthesis of a labile protein, IkB, which is an inhibitor of NFkB. This effect is mimicked by puromycin, another protein synthesis inhibitor, and by TNF-alpha, which induces a signaling cascade leading to the phosphorylation, ubiquination, and degradation of IkB.
SF295 glioblastoma cells were transfected with lipofectin and oligonucleotide (scrambled survivin, no oligonucleotide, antisense APO 1 to APO 15) or left untreated. […]

| Sequence | XIAP down-regulation T24 protein (XIAP protein) | XIAP protein levels relative to total protein, compared to mock transfection (in words) (XIAP protein) | XIAP down-regulation T24 RNA (XIAP RNA) | XIAP down-regulation H460 RNA (XIAP mRNA [1]) | XIAP RNA (XIAP mRNA [2]) | HIAP1 mRNA levels (in words) (HIAP1 mRNA) | decrease of HIAP1 mRNA compared to mock or scrambled survivin control (HIAP1 mRNA; SF295 cells, six hours after transfection) |
| --- | --- | --- | --- | --- | --- | --- | --- |
| AATATGTAAACTGTGATGC (mA*mAdTdAdTdGdTdAdAdAdCdTdGdTdGdAdTmG*mC; antisense) [Code C2] | 45% | some decrease | 36% | 70% | 0.33 |  |  |
| ACCATTCTGGATACCAGAA (mA*mCdCdAdTdTdCdTdGdGdAdTdAdCdCdAdGmA*mA) [Code C5] | 54% | some decrease | 71% |  |  |  |  |
| ACCCATGCACAAAACTACC (chemistry not given here) [APO 4] |  |  |  |  |  | stress-induced increase in HIAP1 mRNA |  |
| AGTTTTCAACTTTGTACTG (antisense; sugars from the 5' end m2 d15 m2, backbone and T or U not given here; further chemistry not fully specified) [Code D5] | 33% | some decrease | 39% |  |  |  |  |
| CAGGGTTCCTCGGGTATAT (antisense; sugars from the 5' end m2 d15 m2, backbone and T or U not given here; further chemistry not fully specified) [Code B6] | 47% | some decrease | 51% |  |  |  |  |
| CCTGTCCTTTAATTCTTAT (chemistry not given here) [APO 13] |  |  |  |  |  | stress-induced increase in HIAP1 mRNA |  |
| CTACAGCTGCATGACAACT (antisense; sugars from the 5' end m2 d15 m2, backbone and T or U not given here; further chemistry not fully specified) [Code F4] | 43% | some decrease | 33% |  |  |  |  |
| CTTGTCCACCTTTTCTAAA (antisense; sugars from the 5' end m2 d15 m2, backbone and T or U not given here; further chemistry not fully specified) [Code E3] | 64% | some decrease | 53% | 55% | 0.48 |  |  |
| GAAAGTAATATTTAAGCAG (antisense; chemistry not fully specified) [Code E2] | 51% | some decrease | 54% | 60% |  |  |  |
| GCATTTTCGTTATTCATTG (chemistry not given here) [APO 11] |  |  |  |  |  | stress-induced increase in HIAP1 mRNA |  |
| GCTGAGTCTCCATATTGCC [G4] (chemistry not fully specified) [Code G4] | 48% | some decrease | 34% | 51% |  |  |  |
| GGCTGCAATATTTCCTTTT (chemistry not given here) [APO 14] |  |  |  |  |  | stress-induced increase in HIAP1 mRNA |  |
| GTGTAGTAGAGTCCAGCAC (antisense; sugars from the 5' end m2 d15 m2, backbone, methylation of C and T or U not given here; further chemistry not fully specified) [Code F6] | 39% | some decrease | 34% |  |  |  |  |
| GTTGTTCCCAAGGGTCTTC (antisense; sugars from the 5' end m2 d15 m2, backbone, methylation of C and T or U not given here; further chemistry not fully specified) [Code E8] | 56% |  | 72% | 44% |  |  |  |
| TTCAACATGGAGATTCTAA (chemistry not given here) [APO 9] |  |  |  |  |  |  | ~50% |
